Experimental data from patent publication US20150105252A1, “SUBSTITUTED PYRAZOLES AS HERBICIDES” (E I DU PONT DE NEMOURS AND COMPANY, priority 2013, published 2015).

Key:
morningglory [1] = assay: Test A postemergence; assay type: in vivo, Ipomoea spp.; details: Postemergence, 1000 g ai/ha; visual rating after approx. 10 days, 0 to 100 scale (0 no effect, 100 complete control)
Excerpt: (§1) Seeds of plant species selected from barnyardgrass (Echinochloa crus-galli), kochia (Kochia scoparia), common ragweed (Ambrosia elation), Italian ryegrass (Lolium multiflorum), crabgrass, large (large crabgrass, Digitaria sanguinalis), foxtail, giant (giant foxtail, Setaria faberii), morningglory (Ipomoea spp.), pigweed (redroot pigweed, Amaranthus retroflexus), velvetleaf (Abutilon theophrasti), wheat (Triticum aestivum), and corn (Zea mays) were planted into a blend of loam soil and sand and treated preemergence with a directed soil spray using test chemicals formulated in a non-phytotoxic solvent mixture which included a surfactant.
(§2) At the same time, plants selected from these crop and weed species and also blackgrass (Alopecurus myosuroides), and galium (catchweed bedstraw, Galium aparine) were planted in pots containing the same blend of loam soil and sand and treated with postemergence applications of test chemicals formulated in the same manner. Plants ranged in height from 2 to 10 cm and were in the one- to two-leaf stage for the postemergence treatment. Treated plants and untreated controls were maintained in a greenhouse for approximately 10 days, after which time all treated plants were compared to untreated controls and visually evaluated for injury. Plant response ratings, summarized in Table A, are based on a 0 to 100 scale where 0 is no effect and 100 is complete control. A dash (-) response means no test result.

morningglory [2] = assay: Test A preemergence; assay type: in vivo, Ipomoea spp.; details: Preemergence, 1000 g ai/ha; 0 to 100 scale, 0 no effect, 100 complete control
Excerpt: as §1, §2

wheat [3] = assay: Test A postemergence; assay type: in vivo, Triticum aestivum; details: Postemergence, 1000 g ai/ha; visual rating after approx. 10 days, 0 to 100 scale (0 no effect, 100 complete control)
Method in brief: (§3)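 Scoring was visual, on a scale where 100 means complete control and 0 means no effect, comparing treated with untreated plants around 10 days post-application. Compounds in surfactant-containing non-phytotoxic solvent were sprayed onto soil preemergence or onto one- to two-leaf seedlings (2–10 cm) postemergence.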

velvetleaf [4] = assay: Test A preemergence; assay type: in vivo, Abutilon theophrasti; details: Preemergence, 1000 g ai/ha; 0 to 100 scale, 0 no effect, 100 complete control
Excerpt: as §1, §2

wheat [5] = assay: Test A preemergence; assay type: in vivo, Triticum aestivum; details: Preemergence, 1000 g ai/ha; 0 to 100 scale, 0 no effect, 100 complete control
Method in brief: as §3

barnyardgrass [6] = assay: Test A postemergence; assay type: in vivo, Echinochloa crus-galli; details: Postemergence, 1000 g ai/ha; visual rating after approx. 10 days, 0 to 100 scale (0 no effect, 100 complete control)
Excerpt: as §1, §2

pigweed [7] = assay: Test A postemergence; assay type: in vivo, Amaranthus retroflexus; details: Postemergence, 1000 g ai/ha; visual rating after approx. 10 days, 0 to 100 scale (0 no effect, 100 complete control)
Excerpt: as §1, §2

pigweed [8] = assay: Test A preemergence; assay type: in vivo, Amaranthus retroflexus; details: Preemergence, 1000 g ai/ha; 0 to 100 scale, 0 no effect, 100 complete control
Excerpt: as §1, §2

foxtail, giant [9] = assay: Test A preemergence; assay type: in vivo, Setaria faberii; details: Preemergence, 1000 g ai/ha; 0 to 100 scale, 0 no effect, 100 complete control
Method in brief: as §3

corn [10] = assay: Test A postemergence; assay type: in vivo, Zea mays; details: Postemergence, 1000 g ai/ha; visual rating after approx. 10 days, 0 to 100 scale (0 no effect, 100 complete control)
Excerpt: as §1, §2

barnyardgrass [11] = assay: Test A preemergence; assay type: in vivo, Echinochloa crus-galli; details: Preemergence, 1000 g ai/ha; 0 to 100 scale, 0 no effect, 100 complete control
Method in brief: as §3

velvetleaf [12] = assay: Test A postemergence; assay type: in vivo, Abutilon theophrasti; details: Postemergence, 1000 g ai/ha; visual rating after approx. 10 days, 0 to 100 scale (0 no effect, 100 complete control)
Excerpt: as §1, §2

crabgrass, large [13] = assay: Test A preemergence; assay type: in vivo, Digitaria sanguinalis; details: Preemergence, 1000 g ai/ha; 0 to 100 scale, 0 no effect, 100 complete control
Method in brief: as §3

foxtail, giant [14] = assay: Test A postemergence; assay type: in vivo, Setaria faberii; details: Postemergence, 1000 g ai/ha; visual rating after approx. 10 days, 0 to 100 scale (0 no effect, 100 complete control)
Method in brief: as §3

corn [15] = assay: Test A preemergence; assay type: in vivo, Zea mays; details: Preemergence, 1000 g ai/ha; 0 to 100 scale, 0 no effect, 100 complete control
Excerpt: as §1, §2

crabgrass, large [16] = assay: Test A postemergence; assay type: in vivo, Digitaria sanguinalis; details: Postemergence, 1000 g ai/ha; visual rating after approx. 10 days, 0 to 100 scale (0 no effect, 100 complete control)
Method in brief: as §3

Row | Structure (SMILES) | Morningglory plant response rating (morningglory [1]) | Morningglory plant response rating (morningglory [2]) | Wheat plant response rating (wheat [3]) | Velvetleaf plant response rating (velvetleaf [4]) | Wheat plant response rating (wheat [5]) | Barnyardgrass plant response rating (barnyardgrass [6]) | Pigweed plant response rating (pigweed [7]) | Pigweed plant response rating (pigweed [8]) | Foxtail, Giant plant response rating (foxtail, giant [9]) | Corn plant response rating (corn [10]) | Barnyardgrass plant response rating (barnyardgrass [11]) | Velvetleaf plant response rating (velvetleaf [12]) | Crabgrass, Large plant response rating (crabgrass, large [13]) | Foxtail, Giant plant response rating (foxtail, giant [14]) | Corn plant response rating (corn [15]) | Crabgrass, Large plant response rating (crabgrass, large [16])
1 | CCc1cc(C(=O)NC)nn1Cc1cccc(C(F)(F)F)c1 [Compound 45] | 90 | 10 | 10 | 0 | 0 | 10 | 60 | 10 | 20 | 20 | 10 | 30 | 20 | 70 | 0 | 40
2 | CCc1cc(C(=O)NCC(C)(C)C)nn1Cc1cccc(C(F)(F)F)c1 [Compound 46] | 70 | 20 | 20 | 0 | 0 | 10 | 40 | 0 | 20 | 20 | 10 | 70 | 10 | 60 | 0 | 30
3 | CCc1cc(C(=O)NCCOC)nn1Cc1cccc(C(F)(F)F)c1 [Compound 48] | 50 | 20 | 0 | 0 | 0 | 10 | 10 | 0 | 10 | 30 | 10 | 10 | 10 | 20 | 0 | 10
4 | CCc1cc(C(=O)NCC(C)C)nn1Cc1cccc(C(F)(F)F)c1 [Compound 49] | 100 | 30 | 30 | 0 | 0 | 20 | 50 | 50 | 100 | 30 | 30 | 50 | 90 | 100 | 0 | 30
5 | CCCCNC(=O)c1cc(CC)n(Cc2cccc(C(F)(F)F)c2)n1 [Compound 52] | 40 | 30 | 30 | 10 | 0 | 20 | 50 | 30 | 70 | 30 | 10 | 40 | 50 | 30 | 0 | 30
6 | CCc1cc(C(=O)NCCC(F)(F)F)nn1Cc1cccc(OC(F)(F)F)c1 [Compound 55] | 100 | 20 | 10 | 10 | 0 | 10 | 70 | 80 | 90 | 20 | 10 | 90 | 100 | 50 | 0 | 50
